In publication PMC7441537 (Journal of medicinal chemistry, 2019):
Converted amounts (≈) assume the structure as drawn.

Columns and labels:
[1] = test system: NNRTI-resistant strain K103N+Y181C (RES056); settings: MT-4 cells
[2] = test system: HIV-1 strains carrying single NNRTI-resistant mutations; assay type: cell-based; settings: EC50 mutant/EC50 WT
[3] = test system: HIV-1 Y181C; assay type: cell-based; settings: MT-4 cells; CC50/EC50
[4] = test system: HIV-1 E138K; assay type: cell-based; settings: MT-4 cells; CC50/EC50
[5] = test system: WT HIV-1 (IIIB); settings: MT-4 cells
[6] = test system: HIV-1 F227L+V106A; assay type: cell-based; settings: MT-4 cells; CC50/EC50
[7] = test system: Kunming mice; test: Acute; assay type: in vivo; settings: 800 mg/kg, 2 weeks, vs control group
[8] = test system: HIV-1 Y188L; assay type: cell-based; settings: MT-4 cells; CC50/EC50
[9] = test system: HIV-1 L100I; assay type: cell-based; settings: MT-4 cells; CC50/EC50
[10] = test system: HIV-1 K103N; assay type: cell-based; settings: MT-4 cells; CC50/EC50
[11] = in vitro; settings: human
[12] = test system: RES056 (K103N+Y181C); settings: read-out: EC50 RES056 (previously reported); cited from earlier work
[13] = Aqueous solubility measured by HPLC; assay type: physicochemical; settings: aqueous solution, pH 2
[14] = test system: mice; test: Subacute toxicity with HE staining of organs; settings: 50 mg/kg, heart, liver, spleen, lungs, kidneys
[15] = cited from earlier work

Question: Which results are given for `Cc1cc(C#N)cc(C)c1Oc1nc(NC2CCN(Cc3ccc(C(N)=O)cc3)CC2)nc2c1COC2` [13c2, 4-((4-((4-(4-Cyano-2,6-dimethylphenoxy)-5,7-dihydrofuro-[3,4-d]pyrimidin-2-yl)amino)piperidin-1-yl)methyl)benzamide]?
Answer: SI RES056 (CC50/EC50) [1]: >6039; resistance FC values range for single mutant strains [2]: 0.6–5.3; SI Y181C [3]: > 56818; SI E138K [4]: > 35714; SI IIIB (CC50/EC50) [5]: >156250; SI F227L+V106A [6]: > 13158; behavior, acute toxicity [7]: no significant behavior abnormalities; SI Y188L [8]: > 29762; SI L100I [9]: > 104167; SI K103N [10]: > 277778

Question: Which results are given for `Cc1cc(C#N)cc(C)c1Oc1nc(NC2CCN(Cc3ccc(S(N)(=O)=O)cc3)CC2)nc2c1SCCC2` [13f1, 4-((4-((4-(4-Cyano-2,6-dimethylphenoxy)-7,8-dihydro-6H-thiopyrano[3,2-d]pyrimidin-2-yl)amino)piperidin-1-yl)methyl)benzenesulfonamide]?
Answer: SI RES056 (CC50/EC50) [1]: ≥3650; SI Y181C [3]: ≥ 14250; SI E138K [4]: ≥ 17435; SI IIIB (CC50/EC50) [5]: ≥54889; SI F227L+V106A [6]: ≥ 6645; SI Y188L [8]: ≥ 18525; SI L100I [9]: ≥ 11488; SI K103N [10]: ≥ 28500

Question: For `Cc1cc(C#N)cc(C)c1Oc1nc(NC2CCN(Cc3cccc(C(N)=O)c3)CC2)nc2c1SCCC2` [13f5, 3-((4-((4-(4-Cyano-2,6-dimethylphenoxy)-7,8-dihydro-6H-thiopyrano[3,2-d]pyrimidin-2-yl)amino)piperidin-1-yl)methyl)benzamide], which CC50 [11] is on record?
Answer: The CC50 was over 4590 nM.

Question: Which EC50 [12] does the source give for `Cc1cc(C#N)cc(C)c1Oc1nc(Nc2ccc(C#N)cc2)nc(N)c1Br` [ETV, etravirine] here?
Answer: Its EC50 is 17 nM.

Question: What about the solubility [13] of the same compound?
Answer: The solubility was 127 µg/mL (≈ 292 µM).

Question: What about the “organ toxicity by HE staining” value [14] of the same compound?
Answer: The value was “alveolar interstitial thickening and alveolar hemorrhage (the blue arrow) in the lung and proximal convoluted tubule edema (the red circle) in the kidney”.

Question: What about the “aqueous solubility (previously reported)” value [15] of the same compound?
Answer: Its value is “less than 1 μg/mL”.

Question: With `Cc1cc(C#N)cc(C)c1Oc1nc(NC2CCN(Cc3ccc(S(N)(=O)=O)cc3)CC2)nc2ccsc12` [compound 3] as the compound, how does the EC50 [12] read?
Answer: The EC50 was 30.6 nM.

Question: And the “aqueous solubility (previously reported)” value [15]?
Answer: The value was “less than 1 μg/mL”.
